From patent US10005767B2, “Compositions and methods for inhibition of the JAK pathway” (Rigel Pharmaceuticals, Inc., priority 2009, dated 2018)

These compounds were tested on human primary T-cells, IL-2 stimulated proliferation (JAK-1 and JAK-3 dependent; reported as JAK3 activity) (assay: Human primary T-cell proliferation stimulated by IL-2 (Example 3)). Settings: tested under conditions described in Example 3 (IL-2 stimulated human primary T-cell proliferation); read-out: ability to inhibit JAK3 activity, IC50 range (Table V).
Assay type: cell-based
Source text: The activity of the compounds described herein can further be characterized by assaying the effect of the 2,4-pyrimidinediamine compounds described herein on the proliferative response of primary human T-cells. In this assay, primary human T-cells derived from peripheral blood and pre-activated through stimulation of the T-cell receptor and CD28, proliferate in culture in response to the cytokine Interleukin-2 (IL-2). This proliferative response is dependent on the activation of JAK1 and JAK3 tyrosine kinases, which phosphorylate and activate the transcription factor Stat-5. The primary human T-cells are incubated with the 2,4-pyrimidinediamine compounds in the presence of IL-2 for 72 hours, and at the assay endpoint intracellular ATP concentrations are measured to assess cell viability. A reduction in cell proliferation compared to control conditions is indicative of inhibition of the JAK kinase pathway.
Primary human T-cells derived from peripheral blood and pre-activated through stimulation of the T-cell receptor and CD28, proliferate in vitro in response to the cytokine Interleukin-2 (IL-2). This proliferative response is dependent on the activation of JAK-1 and JAK-3 tyrosine kinases, which phosphorylate and activate the transcription factor Stat-5.
Human primary T cells were prepared as follows. […] The lymphocytes at the serum: ficoll interface were recovered and washed twice with 5 volumes of PBS. […] The primary T-cells were stimulated for 3-4 days, then transferred to a fresh flask and maintained in RPMI with 10% FBS and 40 U/mL IL-2.
The day prior to the assay set up, primary T-cells were centrifuged and resuspended in fresh RPMI with 10% FBS but without IL-2 and starved overnight. For the assay, the primary T-cells were centrifuged and resuspended Yssel's medium at 2×10^6 cells/mL. 50 μL of cell suspension containing 80 U/mL IL-2 was added to each well of a flat bottom 96 well black plate. For the unstimulated control, IL-2 was omitted from the last column on the plate. […] 50 μL of 2× compound was added per well in duplicate and the cells were allowed to proliferate for 72 hours at 37° C.
Proliferation was measured using CellTiter-Glo® Luminescent Cell Viability Assay (Promega), which determines the number of viable cells in culture based on quantitation of the ATP present, as an indicator of metabolically active cells. The substrate was thawed and allowed to come to ambient temperature. After mixing the Cell Titer-Glo reagent and diluent together, 100 μL was added to each well. The plates were mixed on an orbital shaker for two minutes to induce lysis and incubated at ambient temperature for an additional ten minutes to allow the signal to equilibrate.
The compound designations in Table V are consistent with those of Tables I-IV above.

Cc1cnc(Nc2cccc(S(N)(=O)=O)c2)nc1Nc1ccc2c(c1)oc(=O)n2C [Compound I-63, N2-((3-aminosulfonyl)phenyl)-N4-(3-methyl-2-oxo-2,3-dihydrobenzo[d]oxazol-6-yl)-5-methylpyrimidine-2,4-diamine] and Cc1cnc(Nc2cccc(S(N)(=O)=O)c2)nc1Nc1ccc2oc(=O)n(C)c2c1 [Compound I-67, N2-((3-aminosulfonyl)phenyl)-N4-(3-methyl-2-oxo-2,3-dihydrobenzo[d]oxazol-5-yl)-5-methylpyrimidine-2,4-diamine] cannot be ordered by IC50: under 0.5 µM for the first, under 0.5 µM for the second.

First: Cc1cnc(Nc2ccc(S(N)(=O)=O)cc2)nc1Nc1ccc2c(c1)oc(=O)n2C [Compound I-64, N2-((4-aminosulfonyl)phenyl)-N4-(3-methyl-2-oxo-2,3-dihydrobenzo[d]oxazol-6-yl)-5-methylpyrimidine-2,4-diamine]
Second: Cc1cnc(Nc2ccc(S(N)(=O)=O)cc2)nc1Nc1ccc2oc(=O)n(C)c2c1 [Compound I-68, N2-((4-aminosulfonyl)phenyl)-N4-(3-methyl-2-oxo-2,3-dihydrobenzo[d]oxazol-5-yl)-5-methylpyrimidine-2,4-diamine]
The IC50 of the first is higher: over 10 µM for the first, under 0.5 µM for the second. The second is the more potent here.

Cc1cnc(Nc2cccc(S(C)(=O)=O)c2)nc1Nc1ccc2c(c1)oc(=O)n2C [Compound I-65, N2-((3-methylsulfonyl)phenyl)-N4-(3-methyl-2-oxo-2,3-dihydrobenzo[d]oxazol-6-yl)-5-methylpyrimidine-2,4-diamine] and Cc1cnc(Nc2cccc(S(C)(=O)=O)c2)nc1Nc1ccc2oc(=O)n(C)c2c1 [Compound I-69, N2-((3-methylsulfonyl)phenyl)-N4-(3-methyl-2-oxo-2,3-dihydrobenzo[d]oxazol-5-yl)-5-methylpyrimidine-2,4-diamine] cannot be ordered by IC50: under 0.5 µM for the first, under 0.5 µM for the second.

Cc1cnc(Nc2ccc(S(C)(=O)=O)cc2)nc1Nc1ccc2c(c1)oc(=O)n2C [Compound I-66, N2-((4-methylsulfonyl)phenyl)-N4-(3-methyl-2-oxo-2,3-dihydrobenzo[d]oxazol-6-yl)-5-methylpyrimidine-2,4-diamine] and Cc1cnc(Nc2ccc(S(C)(=O)=O)cc2)nc1Nc1ccc2oc(=O)n(C)c2c1 [Compound I-70, N2-((4-methylsulfonyl)phenyl)-N4-(3-methyl-2-oxo-2,3-dihydrobenzo[d]oxazol-5-yl)-5-methylpyrimidine-2,4-diamine] cannot be ordered by IC50: under 0.5 µM for the first, under 0.5 µM for the second.

Cc1cnc(Nc2cccc(NS(C)(=O)=O)c2)nc1Nc1ccc2oc(=O)n(C)c2c1 [Compound I-71, N2-((3-methylsulfonylamino)phenyl)-N4-(3-methyl-2-oxo-2,3-dihydrobenzo[d]oxazol-5-yl)-5-methylpyrimidine-2,4-diamine] and Cc1cnc(Nc2cccc(NS(C)(=O)=O)c2)nc1Nc1ccc2c(c1)oc(=O)n2C [Compound I-73, N2-((3-methylsulfonylamino)phenyl)-N4-(3-methyl-2-oxo-2,3-dihydrobenzo[d]oxazol-6-yl)-5-methylpyrimidine-2,4-diamine] cannot be ordered by IC50: under 0.5 µM for the first, under 0.5 µM for the second.

Cc1cnc(Nc2ccc(NS(C)(=O)=O)cc2)nc1Nc1ccc2oc(=O)n(C)c2c1 [Compound I-72, N2-((4-methylsulfonylamino)phenyl)-N4-(3-methyl-2-oxo-2,3-dihydrobenzo[d]oxazol-5-yl)-5-methylpyrimidine-2,4-diamine] and Cc1cnc(Nc2ccc(NS(C)(=O)=O)cc2)nc1Nc1ccc2c(c1)oc(=O)n2C [Compound I-74, N2-((4-methylsulfonylamino)phenyl)-N4-(3-methyl-2-oxo-2,3-dihydrobenzo[d]oxazol-6-yl)-5-methylpyrimidine-2,4-diamine] cannot be ordered by IC50: under 0.5 µM for the first, under 0.5 µM for the second.

First: Cn1c(=O)oc2ccc(Nc3nc(Nc4cccc(S(N)(=O)=O)c4)ncc3F)cc21 [Compound I-75, N2-((3-aminosulfonyl)phenyl)-N4-(3-methyl-2-oxo-2,3-dihydrobenzo[d]oxazol-5-yl)-5-fluoropyrimidine-2,4-diamine]
Second: Cn1c(=O)oc2ccc(Nc3nc(Nc4cccc(S(C)(=O)=O)c4)ncc3F)cc21 [Compound I-77, N2-((3-methylsulfonyl)phenyl)-N4-(3-methyl-2-oxo-2,3-dihydrobenzo[d]oxazol-5-yl)-5-fluoropyrimidine-2,4-diamine]
The IC50 of the first is lower: under 0.5 µM for the first, 0.5 to 5 µM for the second.

Cn1c(=O)oc2ccc(Nc3nc(Nc4ccc(S(N)(=O)=O)cc4)ncc3F)cc21 [Compound I-76, N2-((4-aminosulfonyl)phenyl)-N4-(3-methyl-2-oxo-2,3-dihydrobenzo[d]oxazol-5-yl)-5-fluoropyrimidine-2,4-diamine] and Cn1c(=O)oc2ccc(Nc3nc(Nc4ccc(S(C)(=O)=O)cc4)ncc3F)cc21 [Compound I-78, N2-((4-methylsulfonyl)phenyl)-N4-(3-methyl-2-oxo-2,3-dihydrobenzo[d]oxazol-5-yl)-5-fluoropyrimidine-2,4-diamine] fall in the same range of IC50: 0.5 to 5 µM for the first, 0.5 to 5 µM for the second.

First: Cn1c(=O)oc2ccc(Nc3nc(Nc4cccc(NS(C)(=O)=O)c4)ncc3F)cc21 [Compound I-79, N2-((3-methylsulfonylamino)phenyl)-N4-(3-methyl-2-oxo-2,3-dihydrobenzo[d]oxazol-5-yl)-5-fluoropyrimidine-2,4-diamine]
Second: Cn1c(=O)oc2ccc(Nc3nc(Nc4ccc(NS(C)(=O)=O)cc4)ncc3F)cc21 [Compound I-80, N2-((4-methylsulfonylamino)phenyl)-N4-(3-methyl-2-oxo-2,3-dihydrobenzo[d]oxazol-5-yl)-5-fluoropyrimidine-2,4-diamine]
The IC50 of the first is higher: 0.5 to 5 µM for the first, under 0.5 µM for the second.

Cc1ccc(Nc2ncc(C)c(Nc3ccc4oc(=O)n(C)c4c3)n2)cc1NS(C)(=O)=O [Compound I-82, N2-((3-methylsulfonylamino-4-methyl)phenyl)-N4-(3-methyl-2-oxo-2,3-dihydrobenzo[d]oxazol-5-yl)-5-methylpyrimidine-2,4-diamine] and Cc1ccc(Nc2ncc(C)c(Nc3ccc4c(c3)oc(=O)n4C)n2)cc1NS(C)(=O)=O [Compound I-83, N2-((3-methylsulfonylamino-4-methyl)phenyl)-N4-(3-methyl-2-oxo-2,3-dihydrobenzo[d]oxazol-6-yl)-5-methylpyrimidine-2,4-diamine] cannot be ordered by IC50: under 0.5 µM for the first, under 0.5 µM for the second.

Cc1ccc(Nc2ncc(F)c(Nc3ccc4oc(=O)[nH]c4c3)n2)cc1NS(C)(=O)=O [Compound I-84, N2-((3-methylsulfonylamino-4-methyl)phenyl)-N4-(2-oxo-2,3-dihydrobenzo[d]oxazol-5-yl)-5-fluoropyrimidine-2,4-diamine] and Cc1cnc(Nc2ccc(F)c(NS(C)(=O)=O)c2)nc1Nc1ccc2oc(=O)[nH]c2c1 [Compound I-87, N2-((4-fluoro-3-methylsulfonylamino)phenyl)-N4-(2-oxo-2,3-dihydrobenzo[d]oxazol-5-yl)-5-methylpyrimidine-2,4-diamine] cannot be ordered by IC50: under 0.5 µM for the first, under 0.5 µM for the second.

First: Cc1ccc(Nc2ncc(F)c(Nc3ccc4oc(=O)n(C)c4c3)n2)cc1NS(C)(=O)=O [Compound I-85, N2-((3-methylsulfonylamino-4-methyl)phenyl)-N4-(3-methyl-2-oxo-2,3-dihydrobenzo[d]oxazol-5-yl)-5-fluoropyrimidine-2,4-diamine]
Second: Cc1ccc(Nc2ncc(F)c(Nc3ccc4c(c3)oc(=O)n4C)n2)cc1NS(C)(=O)=O [Compound I-86, N2-((3-methylsulfonylamino-4-methyl)phenyl)-N4-(3-methyl-2-oxo-2,3-dihydrobenzo[d]oxazol-6-yl)-5-fluoropyrimidine-2,4-diamine]
The IC50 of the first is lower: 0.5 to 5 µM for the first, over 10 µM for the second. The first is the more potent here.

Cc1cnc(Nc2ccc(F)c(NS(C)(=O)=O)c2)nc1Nc1ccc2oc(=O)n(C)c2c1 [Compound I-88, N2-((4-fluoro-3-methylsulfonylamino)phenyl)-N4-(3-methyl-2-oxo-2,3-dihydrobenzo[d]oxazol-5-yl)-5-methylpyrimidine-2,4-diamine] and Cc1cnc(Nc2ccc(F)c(NS(C)(=O)=O)c2)nc1Nc1ccc2c(c1)oc(=O)n2C [Compound I-89, N2-((4-fluoro-3-methylsulfonylamino)phenyl)-N4-(3-methyl-2-oxo-2,3-dihydrobenzo[d]oxazol-6-yl)-5-methylpyrimidine-2,4-diamine] cannot be ordered by IC50: under 0.5 µM for the first, under 0.5 µM for the second.

CS(=O)(=O)Nc1cc(Nc2ncc(F)c(Nc3ccc4oc(=O)[nH]c4c3)n2)ccc1F [Compound I-90, N2-((4-fluoro-3-methylsulfonylamino)phenyl)-N4-(2-oxo-2,3-dihydrobenzo[d]oxazol-5-yl)-5-fluoropyrimidine-2,4-diamine] showed an IC50 of under 0.5 µM.
